Test results taken from ChEMBL document CHEMBL1201862, “PubChem BioAssay data set” (2004).
Activity calls are given as the source filed them.

What was measured:
Large T antigen = Large T antigen (Simian virus 40, UniProt P03070); assay type: functional, Betapolyomavirus macacae;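 also: Confirmatory-stage PubChem screen for compounds that inhibit SV40 T antigen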
[1] = molecular target: T1, Rac GTPase-activating protein 1 (Homo sapiens, UniProt Q9H0H5); test: MgcRacGAP GTPase-activating activity inhibitors, confirmation, biochemical, ADP Hunter fluorescence, primary and confirmatory (AID 624330); assay type: functional
T1 sequence (Q9H0H5 whole entry): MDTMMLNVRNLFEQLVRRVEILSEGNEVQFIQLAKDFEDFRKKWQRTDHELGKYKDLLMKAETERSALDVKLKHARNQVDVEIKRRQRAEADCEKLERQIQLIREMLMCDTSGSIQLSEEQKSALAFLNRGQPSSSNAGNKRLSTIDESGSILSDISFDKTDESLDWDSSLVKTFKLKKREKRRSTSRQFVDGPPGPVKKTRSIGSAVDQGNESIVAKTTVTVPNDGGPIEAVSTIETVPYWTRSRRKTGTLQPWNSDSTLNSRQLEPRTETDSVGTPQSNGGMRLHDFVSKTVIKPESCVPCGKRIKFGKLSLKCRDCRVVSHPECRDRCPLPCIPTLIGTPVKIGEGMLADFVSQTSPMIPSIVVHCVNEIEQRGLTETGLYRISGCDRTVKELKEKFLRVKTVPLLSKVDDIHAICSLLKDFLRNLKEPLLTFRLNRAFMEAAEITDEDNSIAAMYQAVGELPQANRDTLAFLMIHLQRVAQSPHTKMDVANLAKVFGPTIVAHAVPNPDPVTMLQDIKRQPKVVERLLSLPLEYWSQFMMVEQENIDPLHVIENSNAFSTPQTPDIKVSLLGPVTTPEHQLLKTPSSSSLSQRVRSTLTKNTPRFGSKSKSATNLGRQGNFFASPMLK

[2] = microbe, parasite or virus in culture; assay type: functional; conditions: Mycobacterium tuberculosis
[3] = C. albicans growth with fluconazole, confirmation, fluorescence, retest (AID 2467); assay type: functional, cell-based
[4] = NIH-3T3 fibroblast cytotoxicity, dose response, cytotoxicity control, cell-based, fluorescence, Alamar Blue, secondary assay (AID 2327); assay type: functional;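 also: NIH-3T3 mouse fibroblasts cultured with fluconazole at 8 µg/mL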
H9c2 = test: cells; assay type: functional, cell-based; conditions: Rattus norvegicus, H9c2, Myocardium;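 also: confirmatory concentration-response retest of ultra-high-throughput screening hits for modulation of myocardial damage; cell death induced by hydrogen peroxide oxidative stress; compound pretreatment for 60 min then peroxide exposure for 2 h; potency is for protecting the cells against peroxide damage rather than for killing them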
Estrogen receptor = molecular target: T2, Estrogen receptor (Homo sapiens, UniProt P03372);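 also: potency for inhibiting coactivator peptide recruitment to the receptor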
T2 sequence (P03372 whole entry): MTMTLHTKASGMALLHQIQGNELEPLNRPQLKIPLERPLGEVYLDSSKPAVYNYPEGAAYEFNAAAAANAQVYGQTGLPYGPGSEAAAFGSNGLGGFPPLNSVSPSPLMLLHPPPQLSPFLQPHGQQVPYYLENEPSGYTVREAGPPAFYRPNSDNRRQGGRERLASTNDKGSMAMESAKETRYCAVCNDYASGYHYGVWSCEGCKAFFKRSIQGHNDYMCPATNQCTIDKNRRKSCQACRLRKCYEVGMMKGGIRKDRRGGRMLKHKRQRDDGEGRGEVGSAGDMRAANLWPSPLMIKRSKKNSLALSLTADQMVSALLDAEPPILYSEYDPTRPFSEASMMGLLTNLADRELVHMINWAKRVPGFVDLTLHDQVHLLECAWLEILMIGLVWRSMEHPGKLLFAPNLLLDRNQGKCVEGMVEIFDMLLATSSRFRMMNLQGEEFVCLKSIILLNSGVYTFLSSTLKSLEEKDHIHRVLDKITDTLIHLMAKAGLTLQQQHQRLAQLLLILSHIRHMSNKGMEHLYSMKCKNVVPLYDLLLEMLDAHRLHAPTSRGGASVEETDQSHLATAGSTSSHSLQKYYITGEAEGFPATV

[5] = molecular target: T3, Heat shock factor protein 1 (Mus musculus, UniProt P38532); test: inhibition of MG132-induced HSE-luciferase signal, confirmation, cell-based, NIH3T3, luminescence, dose retest (AID 2382); assay type: functional;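 also: NIH3T3 fibroblasts with HSF1-driven luciferase reporter stressed by proteasome inhibitor MG132; luminescence from HSF1-driven luciferase expression after 8 hours of MG132 stress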
T3 sequence (P38532 whole entry): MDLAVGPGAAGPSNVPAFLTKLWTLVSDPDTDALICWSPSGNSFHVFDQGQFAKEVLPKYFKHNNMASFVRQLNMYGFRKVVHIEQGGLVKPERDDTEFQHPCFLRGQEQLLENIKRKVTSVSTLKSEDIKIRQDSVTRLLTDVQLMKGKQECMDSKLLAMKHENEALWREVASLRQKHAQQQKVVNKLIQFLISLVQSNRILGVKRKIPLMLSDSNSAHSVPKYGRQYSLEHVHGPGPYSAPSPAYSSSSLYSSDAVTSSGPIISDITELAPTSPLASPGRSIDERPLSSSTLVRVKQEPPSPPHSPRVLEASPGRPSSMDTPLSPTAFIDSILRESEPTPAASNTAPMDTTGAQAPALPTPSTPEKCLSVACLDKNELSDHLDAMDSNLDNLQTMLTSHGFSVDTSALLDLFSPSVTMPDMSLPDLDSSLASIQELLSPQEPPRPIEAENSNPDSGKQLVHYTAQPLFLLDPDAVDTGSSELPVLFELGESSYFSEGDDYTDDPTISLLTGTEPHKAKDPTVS

[6] = system: Streptococcus sp. 'group A'; test: growth inhibition of control SK(-) GAS strain, dose response, counter-screen for streptokinase expression inhibitor project, luminescence, kanamycin, BacTiterGlo, confirmation (AID 1900); assay type: functional, organism-based
Streptococcus = test: Group A Streptococcus viability loss, dose response, counter-screen for streptokinase expression inhibitor project, luminescence, BacTiterGlo (AID 1915); assay type: functional, organism-based;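 also: potency for reduction of bacterial viability or growth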
Streptokinase A = molecular target: T4, Streptokinase A (Streptococcus pyogenes serotype M1, UniProt P10520); test: S. pyogenes streptokinase expression inhibitors, potency, dose response, plasminogen activation absorbance, OD405 (AID 1914); assay type: functional, Streptococcus pyogenes M1 GAS;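 also: secreted streptokinase activity via plasminogen activation per viability signal from cell pellet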
T4 sequence (P10520 whole entry): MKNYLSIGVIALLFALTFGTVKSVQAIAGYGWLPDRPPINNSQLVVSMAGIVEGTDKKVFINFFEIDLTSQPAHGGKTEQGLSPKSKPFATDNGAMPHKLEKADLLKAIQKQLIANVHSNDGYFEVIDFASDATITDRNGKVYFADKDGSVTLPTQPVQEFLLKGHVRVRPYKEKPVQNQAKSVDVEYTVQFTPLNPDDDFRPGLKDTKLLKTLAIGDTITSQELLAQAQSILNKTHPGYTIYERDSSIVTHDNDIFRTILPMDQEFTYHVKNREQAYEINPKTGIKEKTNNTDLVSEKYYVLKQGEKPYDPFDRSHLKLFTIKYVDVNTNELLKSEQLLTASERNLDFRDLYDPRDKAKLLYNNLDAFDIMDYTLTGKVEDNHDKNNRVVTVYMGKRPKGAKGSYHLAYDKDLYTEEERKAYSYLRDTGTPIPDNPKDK

cells [7] = test: cells
[8] = cytotoxicity toward NIH3T3 fibroblasts, dose response, counter-screen, cell-based, ATP luminescence, mouse fibroblasts (AID 2010); assay type: functional;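 also: cells exposed to compound for about 90 hours before reading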
[9] = inhibitors of intracellular T. cruzi replication, confirmation, NIH3T3 host cells, beta-gal luminescence (AID 2044); assay type: functional, cell-based;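 also: intracellular parasites grown in NIH/3T3 mouse fibroblasts as host cells; luminescent beta-galactosidase reporter signal from transgenic T. cruzi replicating inside host cells; inhibitors lower the luminescence signal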
cells [10] = assay type: functional
[11] = THP-1 cell cytotoxicity, dose response, cytotoxicity control for non-replicating M. tuberculosis project (AID 489025); assay type: functional
[12] = Luminescence Cell-Based Dose Retest to Confirm Inhibitors of Cancer Stem Cells. [Related pubchem assays (depositor defined):AID2717, AID2721]; assay type: functional; conditions: Homo sapiens
Cytochrome P450 2D6 = Cytochrome P450 2D6 (Homo sapiens, UniProt P10635);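 also: CYP2D6 member of a cytochrome P450 panel assay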
Cytochrome P450 2D6, sequence (P10635 whole entry): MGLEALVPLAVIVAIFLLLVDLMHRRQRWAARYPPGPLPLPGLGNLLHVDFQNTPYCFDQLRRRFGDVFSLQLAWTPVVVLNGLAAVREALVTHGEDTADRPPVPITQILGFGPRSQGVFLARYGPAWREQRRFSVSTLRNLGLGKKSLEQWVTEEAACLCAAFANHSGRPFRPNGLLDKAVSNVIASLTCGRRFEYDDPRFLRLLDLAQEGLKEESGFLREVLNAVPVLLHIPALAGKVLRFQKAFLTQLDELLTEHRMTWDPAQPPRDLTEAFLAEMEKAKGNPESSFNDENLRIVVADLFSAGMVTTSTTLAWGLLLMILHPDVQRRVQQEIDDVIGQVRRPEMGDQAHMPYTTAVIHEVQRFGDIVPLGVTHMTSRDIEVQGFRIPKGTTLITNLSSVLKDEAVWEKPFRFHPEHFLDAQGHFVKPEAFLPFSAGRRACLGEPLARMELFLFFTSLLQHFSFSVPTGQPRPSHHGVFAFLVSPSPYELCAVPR

Cytochrome P450 2C9 = Cytochrome P450 2C9 (Homo sapiens, UniProt P11712)
Cytochrome P450 2C9, sequence (P11712 whole entry): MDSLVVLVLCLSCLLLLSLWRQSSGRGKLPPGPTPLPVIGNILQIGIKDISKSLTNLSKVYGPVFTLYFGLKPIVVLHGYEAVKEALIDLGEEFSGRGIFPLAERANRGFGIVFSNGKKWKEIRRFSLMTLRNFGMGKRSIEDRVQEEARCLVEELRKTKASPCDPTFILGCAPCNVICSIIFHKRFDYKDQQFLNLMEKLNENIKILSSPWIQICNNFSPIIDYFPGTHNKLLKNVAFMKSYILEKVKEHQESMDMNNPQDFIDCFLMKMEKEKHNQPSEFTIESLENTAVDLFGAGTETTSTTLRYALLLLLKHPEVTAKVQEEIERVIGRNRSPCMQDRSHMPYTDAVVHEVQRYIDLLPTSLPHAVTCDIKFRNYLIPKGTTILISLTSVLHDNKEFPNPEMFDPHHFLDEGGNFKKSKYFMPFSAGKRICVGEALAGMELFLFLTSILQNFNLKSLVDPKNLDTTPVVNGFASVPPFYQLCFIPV

[13] = molecular target: T5, Calpain-2 catalytic subunit (Sus scrofa, UniProt P43367); test: pig calpain II inhibitor potency, dose response, biochemical, fluorogenic peptide substrate (AID 1420); assay type: functional
T5 sequence (P43367 whole entry): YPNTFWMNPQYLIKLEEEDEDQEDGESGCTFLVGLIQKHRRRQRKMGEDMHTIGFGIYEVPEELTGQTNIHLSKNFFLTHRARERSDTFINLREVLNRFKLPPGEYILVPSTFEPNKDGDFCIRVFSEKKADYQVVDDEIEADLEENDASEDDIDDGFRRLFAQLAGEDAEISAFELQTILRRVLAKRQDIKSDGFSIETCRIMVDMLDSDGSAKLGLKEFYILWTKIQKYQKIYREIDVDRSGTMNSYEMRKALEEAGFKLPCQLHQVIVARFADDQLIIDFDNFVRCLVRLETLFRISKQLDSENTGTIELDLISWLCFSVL

Large T antigen, sequence (P03070 whole entry): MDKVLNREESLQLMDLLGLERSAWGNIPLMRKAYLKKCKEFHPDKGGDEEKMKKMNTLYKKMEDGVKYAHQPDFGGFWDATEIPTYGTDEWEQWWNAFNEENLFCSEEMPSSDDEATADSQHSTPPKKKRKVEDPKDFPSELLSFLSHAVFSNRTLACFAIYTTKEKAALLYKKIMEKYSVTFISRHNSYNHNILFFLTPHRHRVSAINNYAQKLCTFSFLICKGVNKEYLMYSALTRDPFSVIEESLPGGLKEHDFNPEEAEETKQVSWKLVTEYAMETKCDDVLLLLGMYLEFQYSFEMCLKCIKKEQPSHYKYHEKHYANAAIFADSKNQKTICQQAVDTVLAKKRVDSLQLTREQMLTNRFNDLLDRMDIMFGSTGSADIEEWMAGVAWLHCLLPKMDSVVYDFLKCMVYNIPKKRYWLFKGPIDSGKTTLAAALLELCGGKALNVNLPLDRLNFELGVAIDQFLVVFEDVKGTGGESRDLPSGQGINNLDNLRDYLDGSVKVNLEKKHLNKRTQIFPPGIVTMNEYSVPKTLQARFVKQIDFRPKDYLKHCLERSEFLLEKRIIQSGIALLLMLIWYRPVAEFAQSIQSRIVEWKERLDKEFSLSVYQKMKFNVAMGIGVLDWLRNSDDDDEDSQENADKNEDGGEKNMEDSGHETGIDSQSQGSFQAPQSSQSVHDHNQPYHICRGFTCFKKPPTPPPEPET

C/C(=N\NC(=O)CSc1nc2ccccc2o1)c1ccc(O)cc1
IC50 (Large T antigen): 18.9 µM (active)
IC50 [1]: 86.9 µM (active)

O=C(Nc1cccc(-c2nc3ccccc3s2)c1)c1cc(-n2cnnc2)ccc1Cl
CC50 [2]: > 40 µM (active)
EC50 [3]: 2.98 µM (active)
EC50 [4]: 20.3 µM (inconclusive)

O=C(N/N=C/c1ccccn1)c1[nH]c2ccc([N+](=O)[O-])cc2c1-c1ccccc1
IC50 (H9c2): > 79 µM (inactive)

O=C(CN1CCN(c2ccccc2O)CC1)Nc1ccccc1C(=O)NCCc1ccccc1
CC50 [2]: > 40 µM (active)

Cc1ccc(NC(=O)CCCc2nc(O)c3ccccc3n2)c(Cl)c1
IC50 (H9c2): 25.1 µM (active)

CCOC(=O)C1CCCN(C(=O)CCC(=O)Nc2ccc3nc(N4CCOCC4)cc(C)c3c2)C1 (centres undefined)
IC50 (H9c2): > 79 µM (inactive)

N#Cc1c(SCC(=O)Nc2nccs2)nc2c(c1-c1ccco1)CCCC2
IC50 (Estrogen receptor): > 50 µM (not active)
EC50 [5]: > 195 µM (not active)

O=C(CCc1nc(O)c2ccccc2n1)NNC(=O)c1ccc(F)cc1
IC50 (H9c2): > 79 µM (inactive)

O=C(CC1CC2CCC1C2)Nc1nc(-c2ccccn2)cs1 (centres undefined)
EC50 [3]: > 38 µM (not active)
IC50 (H9c2): > 79 µM (inactive)
EC50 [6]: 4.21 µM (active)
EC50 [4]: > 150 µM (inactive)
EC50 (Streptococcus): 13.2 µM (active)
EC50 (Streptokinase A): > 150 µM (not active)

CO/C(O)=C(/C=N/c1ccc(O)cc1)[N+](=O)[O-]
IC50 (Large T antigen): 62.1 µM (active)
IC50 [1]: 25.5 µM (active)

CC(OC(=O)Cc1nnc(O)c2ccccc12)C(=O)Nc1ccc(F)cc1Cl (centres undefined)
IC50 (H9c2): 15.4 µM (active)

C=CC(=O)Oc1ccc(N2Cc3ccccc3C2=O)cc1
IC50 (Large T antigen): 4.45 µM (active)

Cc1cccc(COc2ccccc2/C=N/Nc2ccc([N+](=O)[O-])cc2)c1
CC50 [2]: > 40 µM (active)
EC50 [3]: > 38 µM (not active)
EC50 [4]: > 150 µM (inactive)

Cc1ccc(NC(=O)c2ccc(Nc3c([N+](=O)[O-])cc([N+](=O)[O-])cc3[N+](=O)[O-])cc2)cc1
EC50 (cells [7]): 0.071 µM (active)
EC50 [8]: 15.8 µM (active)
EC50 [9]: < 0.1 µM (active)
EC50 [5]: 8.29 µM (active)

CC(C)(C)NC(=O)C(c1c[nH]c2ccccc12)N(C(=O)Cn1nnc(-c2ccc(F)cc2)n1)c1cccc(O)c1 (centres undefined)
CC50 [2]: > 40 µM (active)

CCc1ccc2nc(N(CCN(C)C)C(=O)c3ccc4ncsc4c3)sc2c1
EC50 (cells [7]): 0.088 µM (active)
EC50 [8]: > 60 µM (not active)
EC50 [9]: < 0.1 µM (active)

COc1ccc(-c2nnn(CC(=O)OC3CCCCC3)n2)cc1OC
IC50 (cells [10]): 11.6 µM (active)
CC50 [11]: > 40 µM (active)

O=C(CSc1nnc(-c2ccco2)[nH]1)Nc1sc2c(c1C(=O)Nc1ccccc1)CCCC2
IC50 (Estrogen receptor): 40 µM (not active)

CNS(=O)(=O)c1cc2c3c(cccc3c1)C(=O)NC2=O
IC50 (H9c2): 16.9 µM (active)

Cc1ccc(C(=O)C=CNNC(=O)c2ccccc2)cc1
CC50 [11]: > 40 µM (active)

COc1ccccc1CN=C(S)Nc1ccc2nc(N3CCN(C)CC3)cc(C)c2c1
AC50 [12]: 0.168 µM (active)
EC50 (cells [7]): 0.129 µM (active)
EC50 [8]: > 60 µM (not active)
EC50 [9]: < 0.1 µM (active)

COc1ccc(Cn2c(N)c(C(=O)NCc3ccco3)c3nc4ccccc4nc32)cc1
AC50 (Cytochrome P450 2D6): 14.1 µM (inconclusive)
AC50 (Cytochrome P450 2C9): 1 µM (inconclusive)
IC50 (Estrogen receptor): 17.3 µM (active)

Cn1c(=O)c2c3c(sc2n2c(SCC(N)=O)nnc12)CC(C(C)(C)C)CC3 (centres undefined)
CC50 [2]: > 40 µM (active)
IC50 [13]: 42.9 µM (not active)

CCOC(=O)c1nn(-c2cccc(OC)c2)c2nc(Nc3ccccc3)cc(=O)n12
IC50 (H9c2): > 79 µM (inactive)
EC50 [6]: 3.12 µM (active)
EC50 (Streptococcus): 30 µM (active)
EC50 (Streptokinase A): > 150 µM (not active)

O=C(CC(Sc1ccc(Br)cc1)C(=O)O)c1ccc(Br)cc1 (centres undefined)
IC50 (Large T antigen): 49.4 µM (active)

N#CSCC(=O)N1c2ccccc2CCc2ccccc21
IC50 (Large T antigen): 22 µM (active)

CCn1cnc2cc(NCc3cccc(OC)c3O)ccc21
IC50 (Large T antigen): 13.3 µM (active)

CC1CCC2(CC1)NC(=O)N(CC(=O)c1ccc[nH]1)C2=O (centres undefined)
IC50 (Estrogen receptor): > 50 µM (not active)

O=C(N/N=C/c1ccc(O)c(O)c1)c1cc(-c2ccccc2)nc2ccccc12
IC50 (Large T antigen): 54.1 µM (active)

Cc1ccc2[nH]c(C)c(CCNC(=O)c3cc4cc([N+](=O)[O-])ccc4oc3=O)c2c1
IC50 (cells [10]): 4.92 µM (active)
CC50 [2]: > 40 µM (active)

Cc1nnc(NC(=O)Cc2cccs2)s1
IC50 (Estrogen receptor): 19 µM (active)
